From ChEMBL document CHEMBL1142803, “Synthesis and in vitro study of novel 7-O-acyl derivatives of Oroxylin A as antibacterial agents” (2005)
Converted amounts (≈) assume the structure as drawn.

Assays:
Staphylococcus aureus = experiment: Minimum inhibitory concentration against gram positive Staphylococcus aureus (MTCC 96) using broth dilution method; format: functional
Bacillus subtilis = experiment: Minimum inhibitory concentration against gram positive Bacillus subtilis (MTCC 441) using broth dilution method; format: functional
Bacillus sp. = experiment: Minimum inhibitory concentration against gram positive Bacillus sphaericus (MTCC 11) using broth dilution method; format: functional, Lysinibacillus sphaericus; conditions: Bacillus sp. (in: firmicutes)
Klebsiella aerogenes = experiment: Minimum inhibitory concentration against gram negative Klebsiella aerogenes (MTCC 39) using broth dilution method; format: functional
[1] = Minimum inhibitory concentration against gram negative Chromobacterium violaceum (MTCC 2656) using broth dilution method; format: functional

Structure (SMILES) | MIC (Staphylococcus aureus) | MIC (Bacillus subtilis) | MIC (Bacillus sp.) | MIC (Klebsiella aerogenes) | MIC [1]
CCOc1cc2oc(-c3ccccc3)cc(=O)c2c(OCC)c1OC | 25 µg/mL (≈ 73.4 µM) | 25 µg/mL (≈ 73.4 µM) | 12.5 µg/mL (≈ 36.7 µM) | 25 µg/mL (≈ 73.4 µM) | 25 µg/mL (≈ 73.4 µM)
CC1(C)S[C@@H]2[C@H](NC(=O)COc3ccccc3)C(=O)N2[C@H]1C(=O)O [PENICILLIN V] | 1.56 µg/mL (≈ 4.46 µM) | 1.56 µg/mL (≈ 4.46 µM) | 3.12 µg/mL (≈ 8.92 µM) | 6.25 µg/mL (≈ 17.8 µM) | 12.5 µg/mL (≈ 35.7 µM)
CCCCCC(=O)Oc1cc2oc(-c3ccccc3)cc(=O)c2c(O)c1OC | 25 µg/mL (≈ 65.4 µM) | 25 µg/mL (≈ 65.4 µM) | 12.5 µg/mL (≈ 32.7 µM) | 25 µg/mL (≈ 65.4 µM) | 25 µg/mL (≈ 65.4 µM)
COc1cc2oc(-c3ccccc3)cc(=O)c2c(OC)c1OC [BAICALEIN TRIMETHYL ETHER] | 25 µg/mL (≈ 80 µM) | 50 µg/mL (≈ 160 µM) | 25 µg/mL (≈ 80 µM) | 50 µg/mL (≈ 160 µM) | 25 µg/mL (≈ 80 µM)
COc1c(O)cc2oc(-c3ccccc3)cc(=O)c2c1O [OROXYLIN A] | 50 µg/mL (≈ 176 µM) | 50 µg/mL (≈ 176 µM) | 25 µg/mL (≈ 87.9 µM) | 50 µg/mL (≈ 176 µM) | 25 µg/mL (≈ 87.9 µM)
COc1c(OC(=O)c2ccccc2)cc2oc(-c3ccccc3)cc(=O)c2c1O | 25 µg/mL (≈ 64.4 µM) | 12.5 µg/mL (≈ 32.2 µM) | 6.25 µg/mL (≈ 16.1 µM) | 25 µg/mL (≈ 64.4 µM) | 12.5 µg/mL (≈ 32.2 µM)
CN[C@@H]1[C@H](O[C@H]2[C@H](O[C@H]3[C@H](O)[C@@H](O)[C@H](N=C(N)N)[C@@H](O)[C@@H]3N=C(N)N)O[C@@H](C)[C@]2(O)C=O)O[C@@H](CO)[C@H](O)[C@H]1O (stereo in doubt) [STREPTOMYCIN] | 6.25 µg/mL (≈ 10.7 µM) | 6.25 µg/mL (≈ 10.7 µM) | 12.5 µg/mL (≈ 21.5 µM) | 1.56 µg/mL (≈ 2.69 µM) | 3.12 µg/mL (≈ 5.37 µM)
CCCCCCCCCCCCCCCC(=O)Oc1cc2oc(-c3ccccc3)cc(=O)c2c(O)c1OC | 25 µg/mL (≈ 47.8 µM) | 25 µg/mL (≈ 47.8 µM) | 25 µg/mL (≈ 47.8 µM) | 12.5 µg/mL (≈ 23.9 µM) | 25 µg/mL (≈ 47.8 µM)
COc1c(OC(C)=O)cc2oc(-c3ccccc3)cc(=O)c2c1O | 50 µg/mL (≈ 153 µM) | 12.5 µg/mL (≈ 38.3 µM) | 25 µg/mL (≈ 76.6 µM) | 50 µg/mL (≈ 153 µM) | 25 µg/mL (≈ 76.6 µM)
CCOc1cc2oc(-c3ccccc3)cc(=O)c2c(O)c1OC | 50 µg/mL (≈ 160 µM) | 25 µg/mL (≈ 80 µM) | 25 µg/mL (≈ 80 µM) | 25 µg/mL (≈ 80 µM) | 25 µg/mL (≈ 80 µM)
COc1c(OC(=O)C/C=C/c2ccccc2)cc2oc(-c3ccccc3)cc(=O)c2c1O | 12.5 µg/mL (≈ 29.2 µM) | 25 µg/mL (≈ 58.4 µM) | 12.5 µg/mL (≈ 29.2 µM) | 12.5 µg/mL (≈ 29.2 µM) | 25 µg/mL (≈ 58.4 µM)
COc1cc(C(=O)Oc2cc3oc(-c4ccccc4)cc(=O)c3c(O)c2OC)cc(OC)c1OC | 25 µg/mL (≈ 52.3 µM) | 12.5 µg/mL (≈ 26.1 µM) | 25 µg/mL (≈ 52.3 µM) | 12.5 µg/mL (≈ 26.1 µM) | 6.25 µg/mL (≈ 13.1 µM)
CCCCCCCCCCCCCC(=O)Oc1cc2oc(-c3ccccc3)cc(=O)c2c(O)c1OC | 50 µg/mL (≈ 101 µM) | 25 µg/mL (≈ 50.5 µM) | 12.5 µg/mL (≈ 25.3 µM) | 50 µg/mL (≈ 101 µM) | 25 µg/mL (≈ 50.5 µM)
COc1c(OC(=O)c2ccc(C)cc2)cc2oc(-c3ccccc3)cc(=O)c2c1O | 50 µg/mL (≈ 124 µM) | 50 µg/mL (≈ 124 µM) | 25 µg/mL (≈ 62.1 µM) | 25 µg/mL (≈ 62.1 µM) | 50 µg/mL (≈ 124 µM)
CCCC(=O)Oc1cc2oc(-c3ccccc3)cc(=O)c2c(O)c1OC | 25 µg/mL (≈ 70.6 µM) | 25 µg/mL (≈ 70.6 µM) | 6.25 µg/mL (≈ 17.6 µM) | 25 µg/mL (≈ 70.6 µM) | 6.25 µg/mL (≈ 17.6 µM)
COc1c(OC(=O)c2ccccc2Cl)cc2oc(-c3ccccc3)cc(=O)c2c1O | 12.5 µg/mL (≈ 29.6 µM) | 25 µg/mL (≈ 59.1 µM) | 25 µg/mL (≈ 59.1 µM) | 25 µg/mL (≈ 59.1 µM) | 25 µg/mL (≈ 59.1 µM)
CCCCCCCCCCCC(=O)Oc1cc2oc(-c3ccccc3)cc(=O)c2c(O)c1OC | 12.5 µg/mL (≈ 26.8 µM) | 25 µg/mL (≈ 53.6 µM) | 12.5 µg/mL (≈ 26.8 µM) | 12.5 µg/mL (≈ 26.8 µM) | 25 µg/mL (≈ 53.6 µM)
COc1cc2oc(-c3ccccc3)cc(=O)c2c(O)c1OC [MOSLOFLAVONE] | 50 µg/mL (≈ 168 µM) | 25 µg/mL (≈ 83.8 µM) | 12.5 µg/mL (≈ 41.9 µM) | 50 µg/mL (≈ 168 µM) | 25 µg/mL (≈ 83.8 µM)
CCCCCCCCCCCCCCCCCC(=O)Oc1cc2oc(-c3ccccc3)cc(=O)c2c(O)c1OC | 25 µg/mL (≈ 45.4 µM) | 12.5 µg/mL (≈ 22.7 µM) | 12.5 µg/mL (≈ 22.7 µM) | 25 µg/mL (≈ 45.4 µM) | 12.5 µg/mL (≈ 22.7 µM)
